Test results published in patent US20220008567A1, “LIQUIDLY INJECTABLE, SELF-STABILIZING BIOPOLYMERS FOR THE DELIVERY OF RADIONUCLIDE” (priority 2018, published 2022).

Experiments:
BxPc3 cells [1] = assay: Cell cycle distribution by propidium iodide flow cytometry (G2/M arrest); type: cell-based, human; conditions: 1 nM of equivalent paclitaxel
Procedure: As radiation sensitization is driven by late G2/M arrest, the effects of paclitaxel on cell cycle progression were examined. BxPc3 cells were treated in vitro with 1 nM of equivalent paclitaxel, stained with propidium iodide to measure relative DNA quantities, and analyzed by flow cytometry to assess the cell cycle distribution over time.

BxPc3 cells [2] = assay: MTS cell proliferation assay (in vitro cytotoxicity)
Procedure: (§1) In vitro cytotoxicity assessment. All cell lines were cultured in monolayers in sterile, vented culture flasks (Corning). Cells were passaged, collected, and then counted with 0.4% Trypan Blue (Thermo Fisher Scientific). Cells were then formulated in their respective media and plated in 96-well plates at 5,000 cells per well in 100 μL. After allowing cells to incubate at 37° C. for 12 h, drugs were then added to the wells. Each drug was formulated at the highest concentration in the cell media and then serially diluted. A PTX equivalent concentration between 10-4 and 10-12 M of each construct was plated in quadruplicate and allowed to incubate for 72 h. 20 μL of CellTiter 96® AQueoous One solution (Promega) was then added to each well. After 1.5 h, the absorbance of each plate was read at 490 nm and normalized to untreated cells to determine the relative cell survival. The half effective concentration (EC50) was calculated as the inflection between the curve's maxima and minima.

[3] = test system: BxPc3, MIA PaCa-2 and AsPc-1 pancreatic cells; assay: In vitro cytotoxicity by MTS across pancreatic cell lines; conditions: FIG. 5
Procedure: as §1

CC(=O)O[C@H]1C(=O)[C@@]2(C)[C@H]([C@H](OC(=O)c3ccccc3)[C@]3(O)C[C@H](OC(=O)[C@H](O)[C@@H](NC(=O)c4ccccc4)c4ccccc4)C(C)=C1C3(C)C)[C@]1(OC(C)=O)CO[C@@H]1C[C@@H]2O [PTX, paclitaxel]
peak proportion of cell population in G2/M phase (BxPc3 cells [1]): 37.9%
time to maximum proportion of G2/M cells (BxPc3 cells [1]): 12 h
in vitro cytotoxicity (BxPc3 cells [2]; FIG. 4A): nanomolar
EC50 (BxPc3 cells [2]; Homo sapiens, BXPC-3, 72 h, read-out: relative half-inhibitory concentration (EC50)): 3.7 nM
cytotoxicity in each cell line [3]: nanomolar cytotoxicity
